Data reported in patent US9969770B2, “Proline compounds as Granzyme B inhibitors” (viDA Therapeutics Inc., priority 2014, dated 2018).

Biological target: GzmB (Homo sapiens, UniProt P10144)
Experiment: Inhibition of fibronectin cleavage by GzmB
Format: biochemical
Conditions: 20 nM granzyme B, 30° C.; for inhibition at 0.62 µM: 0.62 uM inhibitor, read-out: Percent Inhibition at Inhibitor Concentration 0.62 uM; for inhibition at 5.56 µM: 5.56 uM inhibitor, read-out: Percent Inhibition at Inhibitor Concentration 5.56 uM; for inhibition at 50 µM: 50 uM inhibitor, read-out: Percent Inhibition at Inhibitor Concentration 50 uM
Method: Black, 96 well high-binding assay plates (Griener Bio-one) were treated overnight at 4° C. with 40 uL of 8 ug/mL Hilyte Fluor 488 labeled Fibronectin (Cytoskeleton, Inc). After fibronectin coating, plates were washed 3 times in buffer (20 mM Tris-HCl, pH 7.4, 20 mM NaCl) then once with granzyme B assay buffer (50 mM HEPES, pH 7.5, 0.1% CHAPS). After washing, 50 uL of granzyme B assay buffer was added to each fibronectin-coated well. In a separate non-binding 96 well assay plate 5 uL of 20× inhibitor serial dilution stocks were added to 45 uL of 2.22×GzmB mix to establish inhibition (enzyme/inhibitor mixes were all prepared in granzyme B assay buffer and were incubated first at room temperature for 20 minutes, then at 30° C. for another 10 minutes). After incubation, 50 uL of this 2× enzyme/inhibitor mix was added to the corresponding coated well to initiate fibronectin cleavage (20 nM final granzyme B concentration, 8-point inhibitor dilution series starting at 50 uM). The assay was conducted at 30° C. in the TECAN plate reader (TECAN INFINITE® M1000 Pro), which was programmed to monitor the kinetic fluorescence polarization signal (filter set Ex/Em 470 nm/527 nm) with readings taken every minute, for 1 hour. Proteolytic activity was evaluated as the rate of fluorescence enhancement in the parallel emission over the linear range of the reaction. % Inhibition values were calculated from assay controls and the resulting date is shown in Table 6.

GzmB, sequence (P10144 21-247): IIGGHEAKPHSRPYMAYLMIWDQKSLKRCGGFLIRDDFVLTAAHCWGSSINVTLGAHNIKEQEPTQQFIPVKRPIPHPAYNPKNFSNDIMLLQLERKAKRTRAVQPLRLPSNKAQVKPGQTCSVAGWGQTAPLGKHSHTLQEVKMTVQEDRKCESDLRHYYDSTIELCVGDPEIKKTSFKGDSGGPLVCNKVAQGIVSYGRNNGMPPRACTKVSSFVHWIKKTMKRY

inhibition at 0.62 µM	inhibition at 5.56 µM	inhibition at 50 µM	SMILES
35%	70%	86%	O=C(O)CCC(=O)N[C@H](C(=O)NCC(=O)N1C[C@H](C2CCCCC2)C[C@H]1C(=O)NCc1nn[nH]n1)C1CCCC1 [Compound C5, 4-(((S)-2-((2-((2S,4S)-2-(((2H-tetrazol-5-yl)methyl)carbamoyl)-4-cyclohexylpyrrolidin-1-yl)-2-oxoethyl)amino)-1-cyclopentyl-2-oxoethyl)amino)-4-oxobutanoic acid]
40%	76%	84%	CC[C@H](C)[C@H](NC(=O)Cc1ccccc1)C(=O)NCC(=O)N1C[C@H](C2CCCCC2)C[C@H]1C(=O)NCc1nn[nH]n1 [Compound C2, (2S,4S)—N-((2H-tetrazol-5-yl)methyl)-4-cyclohexyl-1-(2-((2S,3S)-3-methyl-2-(2-phenylacetamido)pentanamido)acetyl)pyrrolidine-2-carboxamide]
28%	58%	81%	CC[C@H](C)[C@H](NC(=O)CCC(=O)O)C(=O)NCC(=O)N1C[C@H](Sc2ccccc2)C[C@H]1C(=O)NCc1nn[nH]n1 [Compound C13, 4-(((2S,3S)-1-((2-((2S,4R)-2-(((2H-tetrazol-5-yl)methyl)carbamoyl)-4-(phenylthio)pyrrolidin-1-yl)-2-oxoethyl)amino)-3-methyl-1-oxopentan-2-yl)amino)-4-oxobutanoic acid]
